Data set [1] deals with HIF target gene transcription. As to the kind of experiment: RT-PCR of HIF target gene transcription in treated B6 cells. It counts as cell-based, mouse. On the procedure: (§1) Total RNA from ear fibroblast-like cells or ear hole donuts was prepared with Qiagen RNeasy kit (Qiagen) according to the manufacturer's guidelines. First strand cDNA was synthesized from 1 μg of RNA using the Superscript First-Strand Synthesis System (Invitrogen, Carlsbad, Calif.) according to the manufacturer's instructions. qPCR was performed with SYBR green PCR Master Mix (Applied Biosystems, Life Technologies). In brief, a 20 μl mixture was used containing 10 μl SYBR Green PCR master mix, 1 μl forward and reverse primer, 6 μl sterile water, and 2 μl of complementary DNA template. A negative control (non-template control) was performed in each run. The real-time PCR was performed using a Quant Studio 6 Flex (Applied Biosystems) according to the manufacturer's instructions. All data were normalized to 18S rRNA and quantitative measurements were obtained using the ΔΔCT method. (The primers used are listed with the kit, but not shown, here.

The subject of another data set is HIF1a. The data set is described as follows: HIF1a levels in injured ear tissue of SW mice after subcutaneous drug/gel injection (Western, IHC). The class given is in vivo, mouse. As to conditions: single 100 ul injection, 2 mg/ml drug microcrystals; Western and IHC. On the procedure:
The kinetics of the effectiveness of the drug/gel construct in the injured ear was examined to determine how often re-injection would be necessary. After earpunching, a single injection (100 ul) of hydrogel containing either 2 mg/ml drug microcrystals (Gd) or 0 mg/ml drug microcrystals (G0) was given plus an un-injected group. Ears were harvested daily for 5 days (FIG. 3D).
(§2) Ear tissue samples (3 ear hole donuts/ear from 3 separate mice) were homogenized in radio-immunoprecipitation assay buffer (50 mM Tris-HCl pH 7.6, containing 150 mM NaCl,1% Triton X-100, 1% sodium deoxycholate, 1 mM EDTA and 0.1% SDS) with 1 mM PMSF and a protease inhibitor cocktail (Sigma). Samples with equal amounts of protein (about 40 μg) were loaded into a NuPAGE 4-12% Bis-Tris gradient gel or 8% Bis-Tris gel (Life Technologies, Grand Island, N.Y.), electrophoresed and then electro-transferred onto a PVDF-FL membrane (Immobilon, Billerica, Mass.).
The methods used were performed as previously described. […]
For quantitation of IHC signal, the method used was previously described. […] The number of “positive staining” pixels was determined. The area was expressed in square microns and the final data were expressed as IHC staining signal per square micron. The mean of 2-6 samples were plotted and standard errors calculated. […]

The next data set has as its system HIF2a. The data set is described as follows: HIF2a levels in injured ear tissue of SW mice (Western). The class given is in vivo, mouse. On the procedure:
as §2
Mice were injected subcutaneously at the base of the neck with 100 μL of 10% (w/v) 1:1 (w/w) ratio of P8Cys (with or without 1,4-DPCA drug crystal) to P8NHS hydrogel prepared in PBS. Each component was kept cold and mixed just prior to injection. At different time points, mice were euthanized and tissues were removed for protein and RNA analysis.

Another data set concerns SW ear tissue. The data set is described as follows: Histology, immunostaining and qPCR of injured ear tissue of SW mice. The class given is in vivo, mouse. As for the experimental part: as §1
The methods used were performed as previously described. Tissue from normal ears were fixed with Prefer fixative (the active ingredient is glyoxal) (Anatech) overnight and then washed in H2O. Tissue was embedded in paraffin and 5-μm thick sections cut. Before staining, slides were dewaxed in xylene and rehydrated. Antigen retrieval was performed by autoclaving for 20 min in 10 mM Sodium Citrate, pH 6.0. Tissue sections were then treated with 3% H2O2 and nonspecific binding was blocked with 4% BSA (A7906; Sigma) for 1 h. For immunocytochemistry staining, primary ear skin fibroblasts were grown on coverslips in DMEM with 10% FBS at 37° C. in a humidified 5% CO2 incubator. The coverslips were rinsed with 1×PBS, the cells were fixed in cold methanol (−20° C.) for 10 min, rinsed with 1×PBS, treated with 0.1% Triton-X100, and then incubated with the appropriate primary and secondary antibodies (Table 1). Photomicrographs were produced using the fluorescent microscope (Olympus AX70) and a Spot camera with bundled software.
For histological stains, tissue sections were treated the same as above and then stained with Hematoxylin (Leica Microsystems, #3801562) and Eosin (Leica Microsystems, #3801602), Picro-Sirius Red (Poly Scientific, cat. # s2365), Alcian blue (1% in 3% acetic acid (Polyscience, Bay Shore, N.Y., cat # S111A), or toluidine blue O (Allied Chemical, Morristown, N.J., cat. # NA0652), counterstained with Kernechtrot (Polyscience, Bay Shore, N.Y., cat # S248). The slides were washed, […], cleared with Xylene and coverslipped with Permount mounting media (Fisher, SP15-500). Staining was visualized using an Olympus (AX70) microscope in bright field for H&E and under polarized light for Picro-Sirius Red.
For quantitation of IHC signal, the method used was previously described. Briefly, we used ImagePro v4.0 for image analysis by selecting positive staining from multiple areas in the sections. The number of “positive staining” pixels was determined. The area was expressed in square microns and the final data were expressed as IHC staining signal per square micron. The mean of 2-6 samples were plotted and standard errors calculated.
A general note: Real-time PCR tracks product formation cycle by cycle.

A further data set can be described thus: Solubility of 1,4-DPCA. It counts as physicochemical.
Data set [2] has as its system hydroxylases (PHDs and FIH). As to conditions: cited from earlier work.
Another data set has as its system collagen hydroxylation. Conditions: rats given this compound; cited from earlier work.
The test system of a further data set is prolyl 4-hydroxylase. Conditions: cited from earlier work.
The next data set relates to diabetic wound. Conditions: applied directly to the wound site; cited from earlier work.
The subject of the next data set is Swiss Webster (SW) mice. The data set is described as follows: Ear hole closure in ear-punched Swiss Webster mice. It counts as in vivo, mouse. As to conditions: SW mice given 2 mg/ml drug/gel 3 times plus the inhibitor. The text has this:
Inbred mouse strains were used to study the effect of a small molecule inhibitor of PHD on in-vitro and in-vivo levels of HIF1a, and the impact of this on quantitative regenerative ear hole closure phenotypes. In animal studies, 2.1 mm ear hole punch wounds were created and a 1,4-DPCA-containing hydrogel was subcutaneously implanted in the back of the neck of mice at multiple time-points. Healing was monitored by measuring hole diameters. Endpoints of the study were previously determined to be 30+ days post-injury and included key indices of tissue regeneration such as blastema formation, epithelial, dermal, and cartilaginous wound closure with hair follicle replacement plus multiple molecular markers of cellular de-differentiation, re-differentiation, and stem cell state. These parameters were determined by physical measurements of wound closure, standard tissue histology and histomorphometry, and gene expression using quantitative immunohistochemistry, western analysis, and qPCR. The experimental groups were coded and different laboratory personnel were involved in injuries, injections, phenotyping and data analysis. […]

The subject of another data set is 3T3 fibroblasts. The data set is described as follows: Cell viability, ISO 10993 neutral red. The class given is cell-based. As to conditions: 24 hours, positive control. On the procedure: Viability of 3T3 fibroblasts exposed to drug microcrystals was quantified using ISO 10993. Briefly, different dilutions of drug microcrystals in cell culture medium were added to a subconfluent monolayer of 3T3 fibroblasts (n=3). The cells were cultured for 24 hours at 37° C., 5% CO2, and >90% RH and then washed with PBS. Neutral red solution (0.4%) in DMEM was added, and the cells were stained for 3 hours. Following removal of the staining solution and washing the cells with PBS, the cells were destained using 50% ethanol, 49% ddH2O and 1% glacial acetic acid. Following 10 minutes of agitation, absorbance was measured at 540 nm and used to quantify cell viability. […] Culture medium was used as a negative control. Cell culture medium consisted of high glucose DMEM substituted with L-glutamine, penicillin/streptomycin, 10% v/v newborn calf serum and 20 mM HEPES.

Setting [3] is: day 7, 1,4-DPCA drug/gel-treated SW mice plus inhibitor.

Entries after “also recorded” stand apart in the source; their conditions may differ.

For the molecule `O=C(O)c1c[nH]c2c(ccc3cccnc32)c1=O` [1,4-DPCA, 1,4-dihydrophenonthrolin-4-one-3-carboxylic acid], the “HIF target genes Vegf, Hmox1, Ldh-a, Pgk, Pdk1, Glut1 mRNA” value in [1] was “specifically increased”. Further, in the data set on HIF1a, the “day on which HIF1a levels in the ear begin to rise” value came to 1 days and the “days of peak HIF1a levels in the ear post-injection” value was in the range of 3 to 4 days. Further, in the data set on HIF2a, the “HIF2a in ear tissue in-vivo” value is listed as “barely affected”. In the data set on SW ear tissue (SW ear tissue, immunostaining), the “Laminin (basement membrane) in ear tissue” value is listed as “reduced”; the “MMP9 in ear tissue” value is “increased”; the “inflammatory cell markers MPO and Ly6G in ear tissue” value is reported as “increased”. The solubility in water entry in the data set “Solubility of 1,4-DPCA” is “low solubility”. In data set [2], the “inhibition of the hydroxylases in-vitro and in-vivo at the protein level” value is reported as “potent inhibitor”. In addition, the “collagen hydroxylation and collagen deposition” value in the data set with collagen hydroxylation was “inhibition of collagen hydroxylation and a reduction in collagen deposition”. The “inhibition of prolyl 4-hydroxylase” value with prolyl 4-hydroxylase is “selective and potent inhibitor”.

`CC(=O)N(O)CCCCCNC(=O)CCC(=O)N(O)CCCCCNC(=O)CCC(=O)N(O)CCCCCN` [DFX, desferrioxamine B]: in the data set with diabetic wound, the diabetic wound healing entry was “enhance diabetic wound healing”.

With Endostatin, the “effect on ear hole closure induced by 1,4-DPCA drug/gel” value in the data set on Swiss Webster (SW) mice is “almost complete blockage of ear hole closure”. Further, in the data set with SW ear tissue (setting [3]), the “HIF1a, CD31 and OCT3/4 staining” value is reported as “near complete absence”; the “MMP-9, MPO and neutrophil specific-marker” value is “did not inhibit; also recorded: to a lesser degree”. Besides, the laminin staining result in the data set with SW ear tissue (day 7, 1,4-DPCA drug/gel-treated SW mice, endostatin compared with siHif1a_3) is reported as “greater degree of inhibition”.

For `COC(=O)CNC(=O)C(=O)OC` [DMOG, dimethyloxallyl glycine], the diabetic wound healing result with diabetic wound is “enhance diabetic wound healing”.

`CCCCCCCCCCCCOS(=O)(=O)[O-].[Na+]` [SDS]: in the data set with 3T3 fibroblasts, the “IC50, cell viability” value is on record as “in the acceptable range”.

The values above are taken from patent publication US9675607B2, “Epimorphic regeneration and related hydrogel delivery systems” (Northwestern University, priority 2013, dated 2017).
